Experimental data published in patent US20240139188A1, “Arylamide Compounds For Treatment And Prevention Of Fungal Infections” (priority 2022, published 2024).
≈ marks a conversion by molar mass, not a printed value. Where two headings read alike, the source gives them in different places.

How the values were obtained:
C. albicans = assay: MIC for yeasts, CLSI M27-A3; assay type: cell-based, Candida albicans
A. fumigatus biofilms = assay: Biofilm assay (XTT); details: Aspergillus fumigatus, read-out: inhibition of biofilm formation
Protocol: Biofilm assay: To test the susceptibility of pre-formed A. fumigatus biofilms to
VOR, CAS and to the combination of CAS+BRI and VOR+BRI, a suspension containing 10^6 conidia per mL of the wild-type strain (Δku80 pyrG^+) was prepared in liquid MM and 100 μL of it was inoculated in each well of a 96-well plate. After 24 hours of incubation at 37° C., 50 μL of fresh MM containing CAS, VOR or the combination of VOR and CAS with BRI was added to the biofilm to reach the final concentration as indicated and incubated for a further 12 hours at 37° C. Wells containing untreated conidia were used as a positive control. After, the metabolic activity of the cells was evaluated by adding 50 μL of an aqueous XTT solution (1 mg/mL of XTT and 125 μM of menadione) to each well. The plate was incubated for additional 1 hour at 37° C., centrifuged (2000 rpm, 5 minutes) and 100 μL of the supernatant was transferred to a flat-bottomed 96-well plate. The absorbance was measured at 450 nm on a plate reader (Synergy HTX Multi-Mode Reader- BioTek Instruments). The XTT assay's were performed in six replicates.

C. neoformans [1] = assay: MIC for yeasts, CLSI M27-A3; assay type: cell-based, Cryptococcus neoformans; details: read-out: MIC BRI
C. auris = assay: MIC for yeasts, CLSI M27-A3; assay type: cell-based, Candida auris; details: read-out: MIC BRI
C. neoformans [2] = assay: BRI+CAS against yeasts, colony forming units
Protocol: Combination of Brilacidin and caspofungin against yeasts: For measuring the effect of the combination BRI+CAS against yeast fungal pathogens, two methods were used: (i) metabolic activity by XTT-assay and (ii) colony forming units (CFUs). For the first method, C. neoformans, C. albicans, and C. auris 10^4 cells were inoculated in RPMI-1640 supplemented with CAS 0 to 32 μg/ml (for C. neoformans) and 0 to 1 μg/ml (for Candida spp.) or the same concentrations of CAS combined with BRI 0.625 μM (for C. neoformans), BRI 20 μM (for C. albicans), and BRI 10 μM (for C. auris). […] XTT-assays were also used for C. albicans caspofungin resistant strains but with CAS 0.5 μg/ml combined with BRI 5, 10 or 20 μM. The same experimental design was used for the CFUs determination, except that after 48 hours the cells present in the wells were plated on YPD (yeast extract 10g, peptone 20g, dextrose 20g, agar 20 g, water 1000 mL) and the plates were incubated at 30° C. for 24-48 hours for determining the survival percentage.

[3] = tested on: A. fumigatus null mutants; assay: Phosphatase and kinase null mutant screening; assay type: cell-based, Aspergillus fumigatus; details: for sensitivity of null mutant: BRI 20 μM; for sensitivity, BRI (20 μM): key: +: sensitivity similar to wild-type; −: more sensitive than the wild-type
Protocol: Phosphatase and kinase null mutant screening: An A. fumigatus phosphatase deletion library encompassing 25 null mutants for phosphatase catalytic subunits (Winkelströter et al., G3 (Bethesda), 2015, 5, 1525-39) was screened for sensitivity to the combination of CAS+BRI. […] In each well a total of 200 μL of liquid MM plus conidia from the different mutants (1×10^4 conidia/mL) was incubated in the presence of BRI (20 μM).

chitin synthase genes = assay: Chitin synthase mRNA accumulation (RT-qPCR); details: wild-type strain, 1 hour exposure; not in the mutant strains
Protocol: RNA-sequencing. cDNA synthesis and RTqPCR: All experiments were carried out in biological triplicates and conidia (10^7) were inoculated in liquid MM and A. fumigatus strains were grown for 16 hours at 37 ° C. and treated or not with different concentrations of BRI, CAS, or BRI+CAS for 1 hour. For total RNA isolation, mycelia were ground in liquid nitrogen and total RNA was extracted using TRIzol (Invitrogen), treated with RQ1 RNase-free DNase I (Promega), and purified using the RNAeasy kit (Qiagen) according to the manufacturer's instructions. RNA was quantified using a NanoDrop and Qubit fluorometer, and analyzed using an Agilent 2100 Bioanalyzer system to assess the integrity of the RNA.
For RT-qPCR, the RNA was reverse transcribed to cDNA using the ImProm-II reverse transcription system (Promega) according to manufacturer's instructions, and the synthesized cDNA was used for real-time analysis using the SYBR green PCR master mix kit (Applied Biosystems) in the ABI 7500 Fast real-time PCR system (Applied Biosystems, Foster City, CA, USA).

[4] = tested on: A. fumigatus cell membrane potential; assay: Membrane potential determination, DiBAC4(3); assay type: cell-based, Aspergillus fumigatus; details: BRI 1 μM, 30 minutes
Protocol: Membrane potential determination: […] Biotechnol., 2021, 14, 262-276) with modifications. […] After, the germlings were washed with sterile PBS (140 mM NaCl, 2 mM KCl, 10 mM NaHPO4, 1.8 mM KH2PO4, pH 7.4). The fluorescence was analyzed with excitation wavelength of 450-490 nm, and emission wavelength of 525-550 nm on the Observer Z1 fluorescence microscope (Carl Zeiss) using the 100× with Differential interference contrast (DIC) images. Fluorescent images were captured with an AxioCam camera (Carl Zeiss, Inc.) and processed using the Axio Vision software (version 4.8).

[5] = tested on: A. fumigatus clinical isolates; assay: Growth inhibition of clinical isolates by CAS, VOR, BRI and combinations
A. fumigatus = assay: MIC/MEC, CLSI M38-A2; assay type: cell-based, Aspergillus fumigatus; details: Aspergillus fumigatus
CrzA:GFP = CrzA:GFP translocation to the nucleus; details: BRI 5 μM, 30 minutes
Protocol: Conidia were germinated in YG medium and grown for 13 hours and then exposed or not to BRI, CAS, and BRI+CAS for 30 minutes.

N=C(N)NCCCCC(=O)Nc1cc(C(F)(F)F)cc(NC(=O)c2cc(C(=O)Nc3cc(C(F)(F)F)cc(NC(=O)CCCCNC(=N)N)c3OC3CCNC3)ncn2)c1OC1CCNC1 (stereo not shown) [BRI, brilacidin]
MIC (C. albicans; Candida albicans SC5314, read-out: MIC BRI): 80 µM (≈ 75 µg/mL)
MIC (C. albicans; Candida albicans, read-out: MIC BRI, Candida albicans DPL1006 CAS^R (FKS1 F641L)): 20 µM (≈ 18.7 µg/mL)
MIC (C. albicans; Candida albicans, read-out: MIC BRI, Candida albicans DPL1009 CAS^R (FKS1 S645Y)): 20 µM (≈ 18.7 µg/mL)
MIC (C. albicans; Candida albicans, read-out: MIC BRI, Candida albicans DPL1011 CAS^R (FKS1 S645F + R1361R/H)): 40 µM
MIC (C. albicans; Candida albicans, C. albicans CAS-resistant isolates, read-out: BRI MICs): 20 to 80 µM (≈ 18.7 to 75 µg/mL)
MIC (C. albicans; Candida albicans, C. albicans, read-out: MIC BRI): 80 µM (≈ 75 µg/mL)
inhibition at 20 µM (A. fumigatus biofilms): ~10%
inhibition at 40 µM (A. fumigatus biofilms): ~60%
MIC (C. neoformans [1]; Cryptococcus neoformans H99): 2.5 µM (≈ 2.34 µg/mL)
MIC (C. neoformans [1]; Cryptococcus neoformans, C. neoformans): 2.5 µM (≈ 2.34 µg/mL)
MIC (C. auris; Candida auris 467/2015): 80 µM (≈ 75 µg/mL)
MIC (C. auris; Candida auris 468/2015): 80 µM (≈ 75 µg/mL)
MIC (C. auris; Candida auris 469/2015): 80 µM (≈ 75 µg/mL)
MIC (C. auris; Candida auris 470/2015): 80 µM (≈ 75 µg/mL)
MIC (C. auris; Candida auris 471/2015): 80 µM (≈ 75 µg/mL)
MIC (C. auris; Candidozyma auris, C. auris): 80 µM (≈ 75 µg/mL)
type of activity (C. neoformans [2]; BRI alone, C. neoformans): fungicidal
Mechanism (C. neoformans [2]; Cryptococcus neoformans H99, plating after 48 hours): Fungicidal
sensitivity, BRI (20 μM) ([3]; Afs35 (wild-type; A1159)): +
sensitivity, BRI (20 μM) ([3]; CEA17 (wild-type; A1160)): +
sensitivity, BRI (20 μM) ([3]; ΔcalA (Afu5g09360)): −
sensitivity of null mutant ([3]; ΔcalA): more sensitive
sensitivity, BRI (20 μM) ([3]; ΔcdcA (Afu3g12250)): +
sensitivity, BRI (20 μM) ([3]; ΔdspA (Afu1g13040)): +
sensitivity, BRI (20 μM) ([3]; ΔdspB (Afu1g03540)): +
sensitivity, BRI (20 μM) ([3]; ΔdspD (Afu2g02760)): +
sensitivity, BRI (20 μM) ([3]; ΔltpA (Afu2g01880)): +
sensitivity, BRI (20 μM) ([3]; ΔmpkA): −
sensitivity of null mutant ([3]; ΔmpkA): more sensitive
sensitivity, BRI (20 μM) ([3]; ΔmpkB): +
sensitivity, BRI (20 μM) ([3]; ΔmpkC): +
sensitivity, BRI (20 μM) ([3]; ΔnemA (Afu1g09460)): +
sensitivity, BRI (20 μM) ([3]; ΔpphA (Afu5g12010)): +
sensitivity, BRI (20 μM) ([3]; ΔppmA (Afu8g04580)): +
sensitivity, BRI (20 μM) ([3]; ΔppsA (Afu5g11690)): +
sensitivity, BRI (20 μM) ([3]; ΔpptA (Afu5g06700)): +
sensitivity, BRI (20 μM) ([3]; ΔppzA (Afu2g03950)): +
sensitivity, BRI (20 μM) ([3]; ΔpsrA (Afu1g04790)): +
sensitivity, BRI (20 μM) ([3]; ΔptcA (Afu1g15800)): +
sensitivity, BRI (20 μM) ([3]; ΔptcB (Afu1g09280)): +
sensitivity, BRI (20 μM) ([3]; ΔptcD (Afu5g13740)): +
sensitivity, BRI (20 μM) ([3]; ΔptcE (Afu2g03890)): +
sensitivity, BRI (20 μM) ([3]; ΔptcF (Afu1g06860)): +
sensitivity, BRI (20 μM) ([3]; ΔptcG (Afu5g13340)): +
sensitivity, BRI (20 μM) ([3]; ΔptcH (Afu4g00720)): +
sensitivity, BRI (20 μM) ([3]; ΔptpB (Afu3g10970)): +
sensitivity, BRI (20 μM) ([3]; ΔptyA (Afu6g06650)): +
sensitivity, BRI (20 μM) ([3]; ΔpypA (Afu4g04710)): +
sensitivity, BRI (20 μM) ([3]; ΔsakA): +
sensitivity, BRI (20 μM) ([3]; ΔsakA, ΔmpkC): +
sensitivity, BRI (20 μM) ([3]; ΔsitA (Afu6g11470)): +
sensitivity, BRI (20 μM) ([3]; ΔyphA (Afu4g07000)): +
chitin synthase gene expression (chitin synthase genes): induce some of these genes
fluorescent germlings (membrane depolarization) [4]: 5%
activity of BRI alone ([5]; 25 clinical isolates susceptible to CAS and 3 CAS-resistant clinical strains): no activity
growth, BRI alone ([5]; CM7555 CAS^R, BRI 20 μM): +
growth, BRI alone ([5]; CM7555 CAS^R, BRI 40 μM): +
growth, BRI alone ([5]; DPL1033 CAS^R, BRI 20 μM): +
growth, BRI alone ([5]; DPL1033 CAS^R, BRI 40 μM): +
growth, BRI alone ([5]; MD24053 CAS^R, BRI 20 μM): +
growth, BRI alone ([5]; MD24053 CAS^R, BRI 40 μM): +
growth inhibition, BRI alone ([5]; WT (CEA17), BRI 20 μM): +
growth, BRI alone ([5]; WT, BRI 20 μM): +
growth, BRI alone ([5]; WT, BRI 40 μM): +
MIC (A. fumigatus; A. fumigatus CM7555 CAS^R, read-out: MIC BRI): > 80 µM
MIC (A. fumigatus; A. fumigatus DPL1033 CAS^R, read-out: MIC BRI): > 80 µM
MIC (A. fumigatus; A. fumigatus MD24053 CAS^R, read-out: MIC BRI): > 80 µM
MIC (A. fumigatus; A. fumigatus VOR^R clinical isolate named in c0 of the row, read-out: MIC BRI): 80 µM (≈ 75 µg/mL)
MIC (A. fumigatus; A. fumigatus WT (CEA17), read-out: MIC BRI): 80 µM (≈ 75 µg/mL)
MIC (A. fumigatus; A. fumigatus WT, read-out: MIC BRI): > 80 µM
MIC (A. fumigatus; A. fumigatus clinical isolate named in c0 of the row, read-out: MIC BRI): > 80 µM
MIC (A. fumigatus; wild-type A. fumigatus, read-out: BRI MIC): > 80 µM
germlings with CrzA:GFP in the nuclei (CrzA:GFP): 0%
